# Measurements as given in patent US10806711B2 (priority 2011, dated 2020).
# “Also recorded” adds a separate entry of the source.
# Tests used:
# mice subjected to I/R = assay: Probenecid bolus followed by Ischemia/Reperfusion (infarct size, echocardiography); type: in vivo, mouse; conditions: IV pretreatment
# Experimental: Ischemia/Reperfusion methods—Mice were anesthetized with sodium pentobarbital and the heart exposed through a left thoracotomy at the level of the fourth intercostal space. The mice were intubated and placed on a mini-ventilator (Harvard apparatus, Holliston, Mass.). A loop occluder was placed around the left anterior descending artery (LAD), and tightened, occluding it for either 30 minutes or 45 minutes. After surgery, the thorocotomy was sutured in layers, and the animal was allowed to recover. […] At twenty-four hours post-I/R, echocardiography was performed and the hearts subsequently removed for determination of infarct size and normalized to the risk region.
# C57 WT mice = assay: Echocardiographic evaluation of contractility (EF) after bolus IV probenecid; type: in vivo, mouse; conditions: for peak change in EF: WT mice
# Experimental: Echocardiographic evaluation. In order to obtain a dose response curve, male C57 WT (n=39) mice 12-16 weeks of age were anesthetized with isoflurane while intravenous jugular access (IV) was obtained under a microscope as previously described. Subsequently, an echocardiographic study with both M-mode and B-mode was obtained in parasternal long axis (PSLAX) as described below. […] Echocardiography—All echocardiographic studies were performed with a Vevo 2100 Ultrasound system (Visualsonics, Toronto Calif.) with an MS400 probe (30 MHz centerline frequency) and were post-processed at a separate workstation with Vevostrain software (Vevo 2100, v1.1.1 B1455, Visualsonic, Toronto, Canada). Images were obtained from PSLAX and short axis (SAX) views at depths between 2 and 10 mm in both M-mode and B-mode. All studies on mice exposed to I/R injury included M-mode, B-mode in PSLAX and strain imaging in SAX. While for the contractility studies, only M-mode measurements were obtained from the PSLAX. Strain imaging was performed from the B-mode images and regional radial strain and circumferential displacement were measured by regional wall and summed average from the SAX images. From the M-mode images, left ventricular cavity size and wall thickness was measured and the ejection fraction (EF) and fractional shortening (FS) calculations were obtained using the Vevo software. The change in the EF, FS, as well as strain derived parameters was obtained by subtracting the baseline value from each individual subject against subsequent time-points. In addition, the average change from baseline for each time point between 5 and 30 minutes was determined for each mouse, with measurements being taken every 5 minutes. These averages were compared between the different groups.
# [1] = system: Langendorff perfused hearts of WT mice; assay: Ex vivo (Langendorff) perfused isolated heart; parameters: species or system mouse; conditions: 10^−6 M perfusion
# Experimental: Ex vivo (Langendorff) studies—Isolated heart experiments were performed as previously described on WT mice. […] Measurements were taken every second.
# [2] = system: isolated ventricular myocytes; assay: Whole-cell patch clamp Ca2+ current recording; type: cell-based, mouse; conditions: myocytes held at −70 mV, 0.1 μM
# Experimental: Electrophysiological recordings—Isolated myocytes were perfused with a Na^+- and K^+-free solution containing (mM): tetraethylammonium chloride (TEA-Cl) 137, CsCl 5.4, CaCl2 2, MgCl2 1, HEPES 5, glucose 10 and 4-aminopyridine 3 (pH=7.4). Whole-cell patch clamp recordings were performed with an Axopatch-1B amplifier. For Ca^2+ current recordings, glass pipettes were filled with solution containing (mM): aspartic acid 115, CsOH 115, CsCl 20, EGTA 11, HEPES 10, MgCl2 2.5, Na-GTP 0.1, Mg-ATP 2 (pH adjusted to 7.2 with CsOH). Probenecid was dissolved in a Na^+- and K^+-free solution which was used to perfuse the myocytes. Data were collected using pCLAMP9 software through an Axon Digidata 1322A data acquisition system. All experiments were performed at room temperature (24° C.).
# [3] = system: isolated ventricular myocytes; assay: Myocyte Ca2+ transient and cytosolic Ca2+ measurement; type: cell-based, mouse
# Experimental: Isolation of ventricular myocytes—Hearts from WT mice (12-week old) were perfused on the Langendorff system with a modified Krebs-Henseleit buffer (KHB) composed of (mM) NaCl 118, KCl 5.4, HEPES 10, NaH2PO4 0.33, MgCl2 2, glucose 10, taurine 30, butanedione monoxime 10 (pH=7.4). Then an enzyme solution (KHB containing 0.7 mg/ml type II collagenase, 0.1% BSA and 25 μM CaCl2) was used to digest the hearts for 10 min. Finally, ventricles of the hearts were excised, minced and filtered to obtain isolated cells. After sufficient sedimentation, the supernatant was removed and the cells were resuspended.
# Myocyte Ca^2+ transient and cytosolic Ca^2+ measurement—Myocytes were loaded with Fluo-4 acetoxymethyl ester (7 μM) for 20 min at room temperature, followed by a 10 min wash with Tyrode's solution, and then placed onto a plexiglass chamber for recording. For Ca^2+ transient measurements, myocytes were excited under 0.5 Hz and 3 Hz field stimulation, and the fluorescence signals were obtained using a Nikon TE 2000 microscope and collected through an InCyt Standard photometry system. For cytosolic Ca^2+ analysis in quiescent myocytes, a Zeiss LSM 510 confocal microscope was used to record fluorescent images from resting myocytes. Line-scan mode was applied at 3.07 ms intervals with 512 pixels spaced at 0.056 μm. Drugs were dissolved in Tyrode's solution and perfused into the chamber. Images of myocytes were recorded every 30 s after drug application. Data analysis was performed using Clampfit 9.2 and Image J 1.44 software.
# Water soluble probenecid was used for all of the myocyte experiments.
# WT mice = assay: In vivo electrophysiology (electrocardiographic data during echo studies); parameters: species or system mouse
# Experimental: In vivo electrophysiology—Electrocardiographic data was obtained during all echocardiographic studies. These studies were subsequently analyzed by an independent, blinded reader at all time points to evaluate for electrocardiographic changes and drug induced arrhythmias. The following parameters were measured: PR interval, RR interval, QRS width and were reported as peak change while the presence of supraventricular or ventricular arrhythmias was measured as a total observed over all images obtained in 30 minutes.
structure (smiles),measurement,setting,value
CCCN(CCC)S(=O)(=O)c1ccc(C(=O)O)cc1 [probenecid],"systolic function (EF and global circumferential strain), pretreated vs saline",mice subjected to I/R; 30 and 45 minute ischemia,not significantly different; also recorded: no difference
same,"infarct size, pretreated vs saline control","mice subjected to I/R; 30 and 45 minute ischemia, 24 hours of reperfusion",not significantly different; also recorded: no difference
same,radial displacement of the anterior wall,"mice subjected to I/R; 30 minutes ischemia, saline 0.43±0.02",0.46±0.06 mm
same,radial displacement of the anterior wall,"mice subjected to I/R; 45 minutes ischemia, saline 0.36±0.03",0.35±0.06 mm
same,"radial displacement, pretreated vs control",mice subjected to I/R; either time point,no difference between the treatment groups
same,peak change in EF,C57 WT mice; 75 mg/kg bolus IV,5.26±3.35
same,peak change in EF,C57 WT mice; 100 mg/kg bolus IV,8.40±2.80
same,time EF remained at an elevated state,"C57 WT mice; 200 mg/kg IV, n=5",at least 1 hour
same,average increase in EF over baseline,"C57 WT mice; 200 mg/kg IV, n=5, evaluated for a longer period (at least 1 hour)",8.9±2.57
same,echocardiographic changes (FIG. 1B),C57 WT mice; FIG. 1B legend,did not result in any echocardiographic changes
same,time after bolus injection at which increased contractility was noted,C57 WT mice; all doses at or above 75 mg/kg IV,≤ 5 min
same,estimated EC50 of dose dependent increase in contractility (EF),"C57 WT mice; bolus IV, measured at 5 minute intervals for 30 minutes total",49.33 mg/kg
same,change in average +dP/dt over time,[1]; paced 400 bpm,statistically significant from 90 to 210 seconds; also recorded: significantly different from baseline
same,relaxation (−dP/dt),"[1]; increased from 1812±158, P<0.01",2309±133
same,inward Ca2+ current,[2],No measurable inward Ca^2+ current was detected
same,decay rate (Tau) of Ca2+ transient,[3]; 0.1 μM,not affected
same,time to peak of cytosolic Ca2+ after treatment,[3]; 0.1 μM,approximately 5 min
same,Ca2+ spark frequency,"[3]; 0.1 μM for 5 minutes, from 1.45±0.09",2.99±0.24
same,increase of cytosolic Ca2+ compared to control at steady state,"[3]; 0.1 μM, quiescent myocytes",2.5±0.2 fold
same,Ca2+ transient amplitude (ΔF/F0),"[3]; 0.1 μM, from 3.35±0.20, P<0.001",4.25±0.25
same,electrocardiographic differences between WT and TRPV2−/− mice (FIG. 2D),WT mice; 100 mg/kg IP,no significant differences
same,"changes in conduction intervals (RR, PR, QRS)",WT mice; all doses,no measured changes in any conduction intervals; also recorded: no significant changes in any of the measured electrocardiographic variables
same,"supraventricular or ventricular arrhythmias, premature beats","WT mice; any dose of probenecid, observed over 30 minutes",No supraventricular or ventricular arrhythmias or premature atrial or ventricular beats were observed; also recorded: no arrhythmias
